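Exposure lasted 48 hours, with cells grown in 96-well plates and compounds tested at five concentrations. Abbreviation: GI50, concentration required for 50% inhibition of growth.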 Active and inactive are the calls of the source. No stated cut-off is given here; in the data, active = GI50 up to about 1.1 µM and inactive = higher.
Key:
Assay in all cases: growth of human tumour cells (NCI), 48 h
SNB-75 = test system: SNB-75
SF-268 = test system: SF-268
OVCAR-3 = test system: OVCAR-3
CAKI-1 = test system: CAKI-1
OVCAR-8 = test system: OVCAR-8
SK-MEL-5 = test system: SK-MEL-5
SW-620 = test system: SW-620
K562 = test system: K562
EKVX = test system: EKVX
SK-MEL-2 = test system: SK-MEL-2
M14 = test system: M14
NCI-H460 = test system: NCI-H460
NCI-H23 = test system: NCI-H23
U-251 = test system: U-251
SNB-19 = test system: SNB-19
LOX IMVI = test system: LOX IMVI
HL-60 = test system: HL-60
HCC 2998 = test system: HCC 2998
NCI-H226 = test system: NCI-H226
Malme-3M = test system: Malme-3M

Measured: GI50

CCOC(=O)c1csc(NC(=O)CN2CCCCC2)n1
inactive: SNB-75 > 100 µM | SF-268 > 100 µM | OVCAR-3 > 100 µM | CAKI-1 > 100 µM | OVCAR-8 > 100 µM | SK-MEL-5 > 100 µM | SW-620 > 100 µM | K562 > 100 µM | EKVX > 100 µM | SK-MEL-2 > 100 µM | M14 > 100 µM | NCI-H460 > 100 µM | NCI-H23 > 100 µM | U-251 > 100 µM | SNB-19 > 100 µM | LOX IMVI > 100 µM | HL-60 > 100 µM | HCC 2998 > 100 µM

COc1ccc(N[C@H](C[S+]([O-])c2ccc(C)cc2)C(F)(F)C(F)(F)F)cc1 (stereo not given in full)
inactive: SNB-75 21 µM | NCI-H226 31 µM | SF-268 52.8 µM | OVCAR-3 > 100 µM | CAKI-1 > 100 µM | OVCAR-8 90.6 µM | SK-MEL-5 68.1 µM | SW-620 > 100 µM | K562 > 100 µM | EKVX 65.2 µM | Malme-3M > 100 µM | M14 97.3 µM | NCI-H460 > 100 µM | NCI-H23 43.5 µM | U-251 37.4 µM | SNB-19 35.8 µM | LOX IMVI 91.4 µM | HL-60 > 100 µM | HCC 2998 > 100 µM

CCCCOc1ccc2c(c1)CC[C@@H]1[C@@H]2CC[C@]2(C)C(=O)N(CCCC)C(=O)C[C@@H]12
inactive: SNB-75 > 100 µM | NCI-H226 > 100 µM | OVCAR-3 > 100 µM | CAKI-1 > 100 µM | OVCAR-8 > 100 µM | SK-MEL-5 26.3 µM | K562 6.37 µM | Malme-3M > 100 µM | SK-MEL-2 > 100 µM | M14 > 100 µM | NCI-H460 > 100 µM | NCI-H23 > 100 µM | U-251 > 100 µM | SNB-19 > 100 µM | HL-60 44.4 µM | HCC 2998 > 100 µM

NCCCCNOCCCN
inactive: SNB-75 > 100 µM | NCI-H226 > 100 µM | SF-268 > 100 µM | OVCAR-3 > 100 µM | CAKI-1 > 100 µM | OVCAR-8 > 100 µM | SK-MEL-5 > 100 µM | SW-620 > 100 µM | K562 > 100 µM | EKVX > 100 µM | Malme-3M > 100 µM | SK-MEL-2 > 100 µM | M14 > 100 µM | NCI-H460 > 100 µM | NCI-H23 > 100 µM | U-251 > 100 µM | SNB-19 > 100 µM | LOX IMVI > 100 µM | HCC 2998 > 100 µM

COC1CCC2C(=O)CCCC2O1 (stereo not given)
inactive: SNB-75 > 100 µM | NCI-H226 > 100 µM | SF-268 > 100 µM | OVCAR-3 > 100 µM | CAKI-1 > 100 µM | OVCAR-8 > 100 µM | SK-MEL-5 > 100 µM | SW-620 > 100 µM | K562 > 100 µM | EKVX > 100 µM | Malme-3M > 100 µM | SK-MEL-2 > 100 µM | M14 > 100 µM | NCI-H460 > 100 µM | NCI-H23 > 100 µM | U-251 > 100 µM | SNB-19 > 100 µM | HL-60 > 100 µM | HCC 2998 > 100 µM

O=S1(=O)C[C@H](NCc2ccccc2)[C@H](NCc2ccccc2)C1
inactive: SNB-75 > 100 µM | NCI-H226 > 100 µM | SF-268 > 100 µM | OVCAR-3 > 100 µM | CAKI-1 > 100 µM | OVCAR-8 96.2 µM | SK-MEL-5 > 100 µM | SW-620 > 100 µM | K562 54.5 µM | EKVX > 100 µM | Malme-3M > 100 µM | SK-MEL-2 > 100 µM | M14 > 100 µM | NCI-H460 > 100 µM | NCI-H23 > 100 µM | U-251 93.8 µM | SNB-19 > 100 µM | LOX IMVI > 100 µM | HCC 2998 > 100 µM

COC(=O)C1=C(O)C(C(=O)OC)[C@@]2(O)[C@@H](C(=O)OC)[C@H](C)C[C@@H]1[C@@H]2C(=O)OC (stereo not given in full)
inactive: SNB-75 22.9 µM | NCI-H226 39.3 µM | OVCAR-3 20 µM | K562 23.2 µM | EKVX 22.4 µM | Malme-3M 42.9 µM | SK-MEL-2 21.4 µM | M14 20.6 µM | NCI-H460 20 µM | NCI-H23 37.5 µM | U-251 20.5 µM | SNB-19 34.2 µM | LOX IMVI 32.5 µM | HL-60 25.9 µM | HCC 2998 16.6 µM
